Measured values as given in publication PMC11640836, “Aminomethylmorpholino Nucleosides as Novel Inhibitors of PARP1 and PARP2: Experimental and Molecular Modeling Analyses of Their Selectivity and Mechanism of Action” (International Journal of Molecular Sciences, 2024).
Where two headings read alike, the source gives them in different places.

Assays:
[1] = target: T1, PARP2 (Mus musculus, UniProt O88554); assay: PARP2 autopoly(ADP-ribosyl)ation (autoPARylation) enzyme assay with [32P]NAD+; format: biochemical, murine; settings: for remaining activity at 1000 µM: 5 min, 1 mM compound, autoPARylation reaction, read-out: Residual catalytic activity of PARP2 in the presence of a 1 mM compound; for IC50: 0.6 mM [32P]NAD+, means ±SDs of three independent experiments, read-out: IC50, PARP2 activity in the autoPARylation reaction
T1 construct: made in house; host or cells: insect cells
Protocol: (§1) Human recombinant poly(ADP-ribose) polymerase 1 (PARP1) and murine poly(ADP-ribose) polymerase 2 (PARP2) were expressed in insect cells and purified as previously described. Radioactively labeled [^32P]NAD^+ was synthesized from [α-^32P]ATP, according to the previously developed method. The reaction of autopoly(ADP-ribosyl)ation was performed as follows. For PARP1, the reaction mixture contained 50 mM of Tris-HCl, a pH of 8.0, 10 mM of MgCl2, 150 mM of NaCl, 7 mM of β-mercaptoethanol, 2 A260/mL of activated DNA, 0.3 mM of [^32P]NAD^+, and 1 of the tested compounds. The reaction was initiated by adding PARP1 up to 200 nM, and the reaction mixtures were incubated at 37 °C for 2 min. For PARP2, the reaction mixture contained 50 mM of Tris-HCl, a pH of 8.0, 3 mM of spermine, 150 mM of NaCl, 7 mM of β-mercaptoethanol, 2 A260/mL of activated DNA, 0.6 mM of [^32P]NAD^+, and 1 of the tested compounds. The reaction was initiated by adding PARP2 up to 800 nM, and the reaction mixtures were incubated at 37 °C for 5 min. The tested compounds were added at six fixed concentrations, specified for each of them. The reaction was stopped by dropping 10 µL aliquots onto Whatman 1 filter papers soaked in 5% trichloroacetic acid (TCA). The filters were washed 4 times with 150 mL of 5% TCA and dried in the air after the removal of TCA with 90% ethanol. The introduction of radioactivity into the reaction product was quantified using a Typhoon FLA 9500 imager (GE Healthcare, Chicago, IL, USA). The half-maximal inhibitory concentration (IC50) values were determined using a six-point concentration response curve in three independent experiments.

[2] = target: T2, PARP1 (Homo sapiens, UniProt P09874); assay: PARP1 autopoly(ADP-ribosyl)ation (autoPARylation) enzyme assay with [32P]NAD+; format: biochemical; settings: for IC50: 0.3 mM [32P]NAD+, means ±SDs of three independent experiments, read-out: IC50, PARP1 activity in the autoPARylation reaction
T2 construct: made in house; host or cells: insect cells
Protocol: as §1

[3] = test system: PARP2; settings: cited from earlier work
[4] = test system: PARP1; settings: cited from earlier work
[5] = test system: HeLa cell line (cervical cancer); assay: Cell culture cytotoxicity assay (EZ4U/MTT), compounds alone and combined with hydrogen peroxide; settings: for Effect (H2O2 + PARP inhibitor combo): Hela
Protocol: The cytotoxicity of the compounds and their combinations with a DNA damaging agent were examined against human cells from the HeLa cell line (cervical cancer) using an EZ4U/MTT colorimetric test (Biomedica, Vienna, Austria). […] The cells were grown in 96-well plates in DMEM medium (Gibco, Thermo Fisher Scientific, Waltham, MA, USA), with 1x GlutaMAX (Gibco, Thermo Fisher Scientific, Waltham, MA, USA), 50 IU/mL penicillin, 50 μg/mL streptomycin (MP Biome-dicals, Santa Ana, CA, USA), and in the presence of 10% fetal bovine serum (Biolot, Saint Petersburg, Russia) in a 5% CO2 atmosphere. After the formation of a 30–50% monolayer, the tested compounds were added to the medium to final concentrations specified in Figure 2 and Figure S4, and the cell culture was monitored for 3 days. […] The combination index (CI) values were calculated using CompuSyn software version 1.0.

[6] = target: T2, PARP1; assay: Steady-state kinetic analysis of the PARP1 enzymatic reaction; format: biochemical; settings: for Type of inhibition: Vmax decreased, KM increased
Protocol: The four efficient inhibitors of PARP1 (compounds 8, 12, 13, and 14) were further examined by detailed kinetic experiments to determine the type of inhibition and the inhibition constants. […] The kinetics experiments of the PARylation reaction were performed at varied concentrations of the NAD^+ substrate and three–four different fixed concentrations of the inhibitor. The kinetic parameters of the reaction (Vmax and KM) were calculated by fitting the Michaelis–Menten equation to the kinetic data. The type of inhibition was determined by analyzing the dependences of Vmax and KM on the concentration of the inhibitor in linearizing coordinates (Figure S3). All the compounds had decreased Vmax and increased KM values as the inhibitor concentration increased (panels A−E), indicating a mixed type of inhibition, which was further evidenced by the double reciprocal plots of kinetic data (panel F). From these experiments, the inhibition constants reflecting the affinity of inhibitors to the NAD^+ binding pocket of free enzymes were determined (Table 2).
To determine the apparent maximum rate of enzymatic reaction (Vmax), Michaelis constant (KM), and possible inhibition mechanism, steady-state kinetic experiments were performed at […] fixed concentrations of the substrate, in the absence and presence of different fixed concentrations of the inhibitor. The standard reaction mixtures (10 μL) contained 100 μM, 300 μM, 500 μM, 1 mM, or 2 mM NAD^+; a tested PARP1/PARP2 inhibitor specified for each compound (Figure S3); the recombinant human enzyme PARP1 (200 nM) or murine PARP2 (800 nM); and reaction buffer components (specified in the previous subsection). The reaction was performed as described in the previous subsection. The raw data (kinetic curves) were obtained in three independent experiments and statistically processed with OriginPro 8.6.0 software. […]
F) Graphical representation in double reciprocal plots. The inhibitor concentrations (µM) are indicated right to each panel.
Figure S3. Graphical representation of inhibition type determination for PARP1 and PARP2 with selected compounds.
The Ki and Ki(2) values presented in Table 2 in the main text and Table S1 were calculated using the equations:
Ki = Ci⁄ Ki (2) = CiV Vmax ∗ൗ−1
ቂ(Vmax Km )൘ቃ(Vmax ∗ Km ∗)⁄ −1 where Vmax (Vmax*) – maximal reaction velocity in th e absence (presence) of inhibitor; Km (Km*) – Michaelis constant in the absence (presence) of inhibitor; Ci – the inhibitor concentration.
(also on this page, place not known: Ci )⁄ (Vmax ∗ )⁄൘ቃ − Ki(2) Ci V ∗ൗ− 1 the Vmax KM 3000 0 1 0 250 [ 32 P]ADP-ribose, counts x 10 -3 NAD + ,)
(1 picture or pasted object on this page, not shown here)

[7] = target: T3, PARP2 (supplemented with HPF1 or not) (Mus musculus, UniProt O88554); assay: PARP2 inhibition in the absence and presence of HPF1 (automodification, SDS-PAGE); format: biochemical, murine; settings: 500 nM PARP2, 1 µM HPF1
T3 construct: made in house; host or cells: insect cells (PARP2)
Protocol: PARP1/PARP2 autopoly(ADP-ribosyl)ation was performed in a standard 20 μL reaction mixture containing 50 mM of Tris-HCl, a pH of 8.0, 100 mM of NaCl, 10 mM of MgCl2, 1 mM of DTT, 10 µM of [^32P]NAD^+, 1 µM of gap-DNA (a 32-mer duplex with a medially located 1-nucleotide gap), 500 nM of PARP1/PARP2 (supplemented with 1 µM of HPF1 or not), and an inhibitor of interest at concentrations specified in Figure 4 and Figure S7. The reaction was initiated by adding a mixture of [^32P]NAD^+ and DNA to a protein-inhibitor mixture pre-assembled on ice. After incubating the mixtures at 37 °C for the indicated time periods, the reactions were terminated by the addition of an SDS-PAGE sample buffer and heating for 2 min at 90 °C. The reaction products were analyzed using 10% SDS-PAGE with the subsequent phosphor imaging of a Coomassie brilliant blue stained gel. Protein bands labeled with [^32P]ADP-ribose were quantified using Quantity One 4.6.7 Basic software. The residual activity (%) was determined as the level of PARP automodification in the presence of an inhibitor normalized to the respective level in the control sample containing no inhibitor.

[8] = test system: PARP2; assay: fluorescence anisotropy; settings: 800 nM olaparib; 50 mM NaCl, 50 mM Tris-HCl pH 8.0, 4 mM DTT; 25 nM FAM-DNA, 20-200 nM PARP1 or 20-800 nM PARP2; mixed on ice, 10 min at room temperature
[9] = test system: PARP1; assay: fluorescence anisotropy; settings: 400 nM olaparib; 50 mM NaCl, 50 mM Tris-HCl pH 8.0, 4 mM DTT; 25 nM FAM-DNA, 20-200 nM PARP1 or 20-800 nM PARP2; mixed on ice, 10 min at room temperature
[10] = mixed-type inhibition, read-out: Ki (affinity for the free enzyme)
[11] = read-out: Ki(2) (affinity for the enzyme complex with NAD+ substrate)

T1 sequence (O88554 whole entry): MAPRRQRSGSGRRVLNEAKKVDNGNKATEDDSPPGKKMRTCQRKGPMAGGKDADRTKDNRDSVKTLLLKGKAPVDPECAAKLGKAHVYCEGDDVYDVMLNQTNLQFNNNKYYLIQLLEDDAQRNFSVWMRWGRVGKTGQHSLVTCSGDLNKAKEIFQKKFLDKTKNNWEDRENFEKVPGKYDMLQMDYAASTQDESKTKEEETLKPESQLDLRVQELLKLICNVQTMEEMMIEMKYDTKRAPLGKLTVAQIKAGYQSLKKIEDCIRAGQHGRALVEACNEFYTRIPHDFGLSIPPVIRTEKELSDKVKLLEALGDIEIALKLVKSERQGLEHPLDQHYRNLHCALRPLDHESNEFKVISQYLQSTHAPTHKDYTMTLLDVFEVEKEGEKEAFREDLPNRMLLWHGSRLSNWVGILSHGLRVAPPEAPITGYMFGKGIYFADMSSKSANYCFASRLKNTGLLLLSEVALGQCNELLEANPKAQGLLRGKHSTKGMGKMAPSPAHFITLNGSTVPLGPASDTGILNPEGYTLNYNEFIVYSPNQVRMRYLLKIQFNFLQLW
T2 sequence (P09874 whole entry): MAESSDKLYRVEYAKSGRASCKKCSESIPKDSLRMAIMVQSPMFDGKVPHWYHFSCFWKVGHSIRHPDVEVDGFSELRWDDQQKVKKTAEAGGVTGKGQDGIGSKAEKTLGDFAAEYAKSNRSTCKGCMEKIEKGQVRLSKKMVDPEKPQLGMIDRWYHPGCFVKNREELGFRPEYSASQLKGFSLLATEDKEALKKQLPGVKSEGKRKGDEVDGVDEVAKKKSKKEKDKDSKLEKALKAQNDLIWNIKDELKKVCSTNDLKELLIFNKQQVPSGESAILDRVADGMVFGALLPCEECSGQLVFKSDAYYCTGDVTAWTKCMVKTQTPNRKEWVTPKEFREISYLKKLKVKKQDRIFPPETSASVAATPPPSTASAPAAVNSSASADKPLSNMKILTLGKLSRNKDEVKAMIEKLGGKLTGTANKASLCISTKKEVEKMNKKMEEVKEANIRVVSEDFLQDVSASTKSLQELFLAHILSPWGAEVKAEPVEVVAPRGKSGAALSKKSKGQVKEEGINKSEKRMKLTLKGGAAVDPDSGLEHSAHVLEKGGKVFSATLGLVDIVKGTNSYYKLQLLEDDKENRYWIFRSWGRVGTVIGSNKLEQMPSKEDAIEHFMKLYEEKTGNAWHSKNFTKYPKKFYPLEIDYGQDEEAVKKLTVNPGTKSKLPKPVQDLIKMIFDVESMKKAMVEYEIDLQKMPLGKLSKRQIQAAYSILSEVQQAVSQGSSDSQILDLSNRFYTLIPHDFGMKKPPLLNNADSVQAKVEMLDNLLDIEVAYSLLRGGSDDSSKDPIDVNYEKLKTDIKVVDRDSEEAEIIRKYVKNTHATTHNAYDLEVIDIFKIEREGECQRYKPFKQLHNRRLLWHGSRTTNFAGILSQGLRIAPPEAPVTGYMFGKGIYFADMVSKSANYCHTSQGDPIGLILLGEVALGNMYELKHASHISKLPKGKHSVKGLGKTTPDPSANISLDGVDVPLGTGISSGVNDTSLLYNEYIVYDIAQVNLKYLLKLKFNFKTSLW
T3 sequence (O88554 whole entry): as the sequence (O88554 whole entry) above

Compound: NC[C@@H]1CN(CC(=O)O)C[C@H](n2cnc3c(N)ncnc32)O1 [Compound 1]
- remaining activity at 1000 µM [1]: > 30%
- Residual catalytic activity of PARP1 in the presence of a 1 mM compound ([2]; autoPARylation reaction): >30%

Compound: Cc1cn([C@H]2CN(CC(=O)O)C[C@@H](CN)O2)c(=O)[nH]c1=O [Compound 2]
- IC50 [1]: 100 ± 12 µM
- IC50 [2]: 60 ± 14 µM

Compound: NC[C@@H]1CN(CC(=O)O)C[C@H](n2cnc3c(=O)[nH]c(N)nc32)O1 [Compound 3]
- remaining activity at 1000 µM [1]: > 30%
- Residual catalytic activity of PARP1 in the presence of a 1 mM compound ([2]; autoPARylation reaction): >30%

Compound: NC[C@@H]1CN(CC(=O)O)C[C@H](n2ccc(N)nc2=O)O1 [Compound 4]
- remaining activity at 1000 µM [1]: > 30%
- Residual catalytic activity of PARP1 in the presence of a 1 mM compound ([2]; autoPARylation reaction): >30%

Compound: O=c1[nH]c(=O)n([C@@H]2O[C@H](CO)[C@@H](O)[C@H]2O)cc1I [Compound 5-I-Urd]
- IC50 [3]: 27 µM
- IC50 [4]: 49 µM

Compound: NC[C@@H]1CN(CC(=O)O)C[C@H](n2ccc(=O)[nH]c2=O)O1 [Compound 5]
- remaining activity at 1000 µM [1]: > 30%
- Residual catalytic activity of PARP1 in the presence of a 1 mM compound ([2]; autoPARylation reaction): >30%

Compound: NC[C@@H]1CN(CC(=O)O)C[C@H](n2cc(I)c(=O)[nH]c2=O)O1 [Compound 6, 2′-aminomethylmorpholino glycine 5-I-uracyl nucleoside]
- IC50 [1]: 142 ± 6 µM
- IC50 [2]: 70 ± 12 µM

Compound: NC[C@@H]1CNC[C@H](n2cnc3c(N)ncnc32)O1 [Compound 7]
- remaining activity at 1000 µM [1]: > 30%
- Residual catalytic activity of PARP1 in the presence of a 1 mM compound ([2]; autoPARylation reaction): >30%

Compound: NC[C@@H]1CNC[C@H](n2cnc3c(=O)[nH]c(N)nc32)O1 [Compound 9]
- remaining activity at 1000 µM [1]: > 30%
- Residual catalytic activity of PARP1 in the presence of a 1 mM compound ([2]; autoPARylation reaction): >30%

Compound: NC[C@@H]1CNC[C@H](n2ccc(N)nc2=O)O1 [Compound 10]
- Effect (H2O2 + PARP inhibitor combo) ([5]; H2O2 30 μM + inhibitor 100 μM): 0.29
- Effect (H2O2 + PARP inhibitor combo) ([5]; H2O2 30 μM + inhibitor 800 μM): 0.23
- Effect (H2O2 + PARP inhibitor combo) ([5]; H2O2 50 μM + inhibitor 100 μM): 0.32
- Effect (H2O2 + PARP inhibitor combo) ([5]; H2O2 50 μM + inhibitor 800 μM): 0.26
- Effect (H2O2 + PARP inhibitor combo) ([5]; H2O2 90 μM + inhibitor 100 μM): 0.45
- Effect (H2O2 + PARP inhibitor combo) ([5]; H2O2 90 μM + inhibitor 800 μM): 0.51
- Effect (H2O2 + PARP inhibitor combo) ([5]; H2O2 150 μM + inhibitor 100 μM): 0.66
- Effect (H2O2 + PARP inhibitor combo) ([5]; H2O2 150 μM + inhibitor 800 μM): 0.64
- Effect (H2O2 + PARP inhibitor combo) ([5]; H2O2 250 μM + inhibitor 100 μM): 0.78
- Effect (H2O2 + PARP inhibitor combo) ([5]; H2O2 250 μM + inhibitor 800 μM): 0.87
- remaining activity at 1000 µM [1]: > 30%
- Residual catalytic activity of PARP1 in the presence of a 1 mM compound ([2]; autoPARylation reaction): >30%

Compound: NC[C@@H]1CNC[C@H](n2ccc(=O)[nH]c2=O)O1 [Compound 11]
- remaining activity at 1000 µM [1]: > 30%
- IC50 [2]: 420 ± 66 µM

Compound: NC[C@@H]1CNC[C@H](n2cc(Cl)c(=O)[nH]c2=O)O1 [Compound 12, aminomethylmorpholino 5-Cl-uracil nucleoside]
- Type of inhibition [6]: mixed-type inhibition
- Ki [6, 10]: 79 ± 6 µM
- Ki [6, 11]: 300 ± 60 µM
- remaining activity at 1000 µM [1]: > 30%
- IC50 [2]: 45 ± 5 µM
- Selectivity for PARP1 over PARP2 (IC50 comparison) ([2]; autoPARylation reaction): highly selective PARP1 inhibitor

Compound: NC[C@@H]1CNC[C@H](n2cc(Br)c(=O)[nH]c2=O)O1 [Compound 13]
- Type of inhibition [6]: mixed-type inhibition
- Ki [6, 10]: 25 ± 4 µM
- Ki [6, 11]: 130 ± 30 µM
- IC50 [1]: 250 ± 37 µM
- IC50 [2]: 30 ± 3 µM
- Impact of HPF1 on the inhibition potency against PARP2 [7]: no impact of HPF1

Compound: O=C(c1cc(Cc2n[nH]c(=O)c3ccccc23)ccc1F)N1CCN(C(=O)C2CC2)CC1 [olaparib, reference compound]
- Effect (H2O2 + PARP inhibitor combo) ([5]; H2O2 30 μM + inhibitor 30 μM): 0.32
- Effect (H2O2 + PARP inhibitor combo) ([5]; H2O2 30 μM + inhibitor 50 μM): 0.42
- Effect (H2O2 + PARP inhibitor combo) ([5]; H2O2 50 μM + inhibitor 30 μM): 0.51
- Effect (H2O2 + PARP inhibitor combo) ([5]; H2O2 50 μM + inhibitor 50 μM): 0.5
- Effect (H2O2 + PARP inhibitor combo) ([5]; H2O2 90 μM + inhibitor 30 μM): 0.6
- Effect (H2O2 + PARP inhibitor combo) ([5]; H2O2 90 μM + inhibitor 50 μM): 0.7
- Effect (H2O2 + PARP inhibitor combo) ([5]; H2O2 150 μM + inhibitor 30 μM): 0.85
- Effect (H2O2 + PARP inhibitor combo) ([5]; H2O2 150 μM + inhibitor 50 μM): 0.9
- Effect (H2O2 + PARP inhibitor combo) ([5]; H2O2 250 μM + inhibitor 30 μM): 0.96
- Effect (H2O2 + PARP inhibitor combo) ([5]; H2O2 250 μM + inhibitor 50 μM): 0.98
- Effect on the cytotoxicity of hydrogen peroxide ([5]; Hela cells, MTT test, H2O2 30 to 250 μM): enhanced the cytotoxic effects of hydrogen peroxide

Compound: Cc1cn([C@@H]2O[C@H](CO)[C@@H](O)[C@H]2O)c(=O)[nH]c1=O [rThd]
- IC50 [3]: 374 µM
- IC50 [4]: 277 µM

Compound: FAM gap-DNA (32-mer duplex, 1-nt gap)
- binding signal (fold increase of EC50 vs no inhibitor) [8]: 1.6
- binding signal (fold increase of EC50 vs no inhibitor) [9]: 1.8
